According to patent publication US12473295B2, “Substituted straight chain spiro derivatives” (Janssen Pharmaceutica NV, priority 2019, dated 2025):
Counter-ions that a name gives are not always drawn.

Assays:
hERG potassium channel = hERG potassium channel (Homo sapiens (Human), UniProt Q12809); test: Effect on membrane potassium current IKr in hERG transfected CHO cells, Protocol 1 (QPatch); assay type: cell-based
How it was run: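 Whole-cell automated patch clamp on CHO cells stably expressing hERG, held at −80 mV; the value is the tail current at −40 mV after a 2 s step to +60 mV, at pH 7.4 bath and pH 7.2 pipette. After 0.3% DMSO control, compound was applied at 3×10^−7 M, 3×10^−6 M, 10^−5 M and 3×10^−5 M, 5 min each. IC50 comes from a non-linear least-squares fit of block versus vehicle.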

Cor.4U Cardiomyocytes = test: Ca2+-fluorescence assay in human pluripotent stem cell-derived cardiomyocytes (CTCM human), Cor.4U Cardiomyocytes; assay type: cell-based; design: key: Green: No concern; Yellow: Low concern; Red: High concern; Black: Very high concern due to arrhythmic events; conditions: 30 min
Description: 7) Cardio-Electrophysiological Effects of the Testing Compounds in Synchronously Beating Human Pluripotent Stem Cell-Derived Cardiomyocytes (hSC-CMs) Using a Ca^2+-Fluorescence Assay (CTCM Human)
Compounds were tested in the 96-well plates
Compounds were tested at 0.1 μM, 0.2 μM, 0.5 μM, 1 μM, 2.5 μM and 5 μM (n=4 per dose) on Cor.4U 9-Cardiomyocytes or on iCell® Cardiomyocytes2 […]
Dimethylsulfoxide (DMSO). The solutions of the compound in DMSO or its solvent (final concentration of 0.1% DMSO; n=8)
Preparation of Test Article and Controls
Tested compounds were dissolved in DMSO at 1000-fold the intended concentrations. A compound “mother-plate” was made, containing the test compounds and positive and negative controls at 1000-fold the final concentrations. At the experiment day, these stock solutions were diluted with Tyrode (Sigma), supplemented with 10 mM HEPES (Gibco), to 2-fold the intended concentration (in round bottom compound plates). Final DMSO concentration in test solutions and vehicle control was 0.1%.
hSC-CMs (Cor.4U® Cardiomyocytes) were obtained from CDI (Ncardia, Germany). Cells are pre-plated and seeded in fibronectin-coated 96-well plates at a density suited to form a monolayer and maintained in culture in a stage incubator (37° C., 5% CO2), according to the instructions of the cell provider.
Before Start of Experiment
At least one hour before the start of the experiments the normal cell medium was replaced with Tyrode solution with Calcium dye (see below).
Cal 520 dye (AAT Bioquest) was dissolved in 11 ml of Tyrode supplemented with 10 mM HEPES and warmed up to 37° C. before adding to the cells.
35 μl cell culture medium was removed from each well and replaced with 35 μl of pre-warmed Cal 520 dye solution and cell plate was incubated for 45 min at 37° C./5% CO2. Cells were incubated for 5 min at 37° C.
Spontaneous electrical activity is recorded, using Cal520™ (AAT Bioquest) calcium fluorescence-dye signaling. This dye integrates the total intracellular calcium activity over the whole well. A bottle of Cal520 dye (50 μg, MW: 1103/mol) is dissolved with 50 μl DMSO as a stock solution of 0.9 mM. 50 μL of the stock solution of the dye was added to 10 ml Tryodes solution to have dye concentration of 4.5 μM. Subsequently, 35 μl of this dye solution was added into each well, to have a final dye concentration of 1.58 μM. The current dye protocol on this CTCM human assay was established recently (Ivan Kopljar et al, Journal of Pharmacological and toxicological methods 2018. 91: 80-86; Lu et al., Tox Sci 2019. 170 (2): 345-356).
Fluorescent signals (Ca^2+ transient morphology) were measured using the Functional Drug Screen System (FDSS/μCell; Hamamatsu, Japan) and the recordings were subsequently analyzed off-line, using appropriate software e.g. Notocord.
The cell plate was loaded into the FDSS/μCell for a test run: Ca^2+ transients were measured for 4 minutes to check for synchronous beating of the cardiomyocytes in each well. All 96 wells were measured simultaneously (sampling interval: 0.06 s, short exposure time: 10 ms; excitation wavelength 480 nm; emission wavelength 540 nm; FDSS/μCell warmed to 37° C.).
During the compound addition step, 100 μl of the respective double-concentrated test solutions was pipetted into each well simultaneously.
Data were analyzed off-line using appropriate software e.g. Notocord-Hem (version 4.3).
The following parameters of the Ca^2′ transient morphology were measured: • beat rate (BR) • amplitude of the Ca^2+ transient (Amp), • CTD90: Ca^2+ transient duration at 90% (time to 90% of the initial base value).
The presence of various ‘arrhythmia-like’ activities were also noted during the experimental periods. […]

Chain of hERG potassium channel (Q12809 whole entry): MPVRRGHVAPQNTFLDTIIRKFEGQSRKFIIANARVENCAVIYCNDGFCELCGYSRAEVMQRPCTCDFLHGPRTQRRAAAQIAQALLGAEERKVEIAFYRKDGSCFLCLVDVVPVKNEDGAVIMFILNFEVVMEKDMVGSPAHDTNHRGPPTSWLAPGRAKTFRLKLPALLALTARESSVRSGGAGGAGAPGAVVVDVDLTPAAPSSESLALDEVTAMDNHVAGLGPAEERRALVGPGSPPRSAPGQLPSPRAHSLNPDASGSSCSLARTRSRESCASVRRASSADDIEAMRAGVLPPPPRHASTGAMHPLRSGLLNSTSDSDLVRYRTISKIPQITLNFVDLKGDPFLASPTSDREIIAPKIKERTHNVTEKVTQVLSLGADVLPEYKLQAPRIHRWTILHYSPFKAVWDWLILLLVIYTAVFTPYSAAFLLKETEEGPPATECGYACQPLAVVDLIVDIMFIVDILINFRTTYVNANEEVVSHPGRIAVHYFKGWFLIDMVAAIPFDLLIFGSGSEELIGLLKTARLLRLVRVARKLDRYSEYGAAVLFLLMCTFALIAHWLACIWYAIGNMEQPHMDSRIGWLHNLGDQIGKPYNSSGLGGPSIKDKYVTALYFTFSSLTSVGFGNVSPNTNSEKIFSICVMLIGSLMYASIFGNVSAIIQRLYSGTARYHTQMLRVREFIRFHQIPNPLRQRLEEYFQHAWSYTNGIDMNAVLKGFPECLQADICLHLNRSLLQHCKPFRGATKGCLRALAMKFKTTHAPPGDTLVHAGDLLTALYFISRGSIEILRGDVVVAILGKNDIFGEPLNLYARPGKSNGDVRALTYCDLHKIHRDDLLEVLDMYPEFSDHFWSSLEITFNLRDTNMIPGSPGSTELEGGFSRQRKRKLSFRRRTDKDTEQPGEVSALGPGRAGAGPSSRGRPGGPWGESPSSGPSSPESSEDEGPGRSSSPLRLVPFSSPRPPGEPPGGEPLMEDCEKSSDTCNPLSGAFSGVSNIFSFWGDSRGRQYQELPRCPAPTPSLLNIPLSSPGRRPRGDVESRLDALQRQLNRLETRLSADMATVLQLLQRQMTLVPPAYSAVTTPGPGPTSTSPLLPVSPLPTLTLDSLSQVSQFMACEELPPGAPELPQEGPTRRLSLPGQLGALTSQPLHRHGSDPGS

Row | SMILES | IC50 (hERG potassium channel) | Color @ 0.1 μM (hazard score) (Cor.4U Cardiomyocytes; 0.1 μM) | Color @ 0.2 μM (hazard score) (Cor.4U Cardiomyocytes; 0.2 μM) | Color @ 0.5 μM (hazard score) (Cor.4U Cardiomyocytes; 0.5 μM) | Color @ 1 μM (hazard score) (Cor.4U Cardiomyocytes; 1 μM) | Color @ 2.5 μM (hazard score) (Cor.4U Cardiomyocytes; 2.5 μM) | Color @ 5 μM (hazard score) (Cor.4U Cardiomyocytes; 5 μM)
1 | CCN(C(=O)c1cc(F)ccc1Oc1nncnc1N1CCC2(C1)CN([C@H](CCCN)C(C)C)C2)C(C)C [Compound 1, (R)-2-((5-(2-(6-amino-2-methylhexan-3-yl)-2,6-diazaspiro[3.4]octan-6-yl)-1,2,4-triazin-6-yl)oxy)-N-ethyl-5-fluoro-N-isopropylbenzamide formate] | > 30.2 µM | – | – | – | – | – | –
2 | CC(C)[C@@H](CCC(C)(C)N)N1CC2(CCN(c3ncnnc3Oc3ccc(F)cc3-c3cncnc3C3CC3)C2)C1 (single isomer, unassigned) [Compound 37, (*R)-5-(6-(6-(2-(4-cyclopropylpyrimidin-5-yl)-4-fluorophenoxy)-1,2,4-triazin-5-yl)-2,6-diazaspiro[3.4]octan-2-yl)-2,6-dimethylheptan-2-amine] | > 30.2 µM | Green | Green | Green | Green | Green | Green
